Measurements from US12022844B2, “Nutritional composition, food/drink composition using nutritional composition, and modified milk powder using nutritional composition” (priority 2018, dated 2024).

Columns and labels:
[1] = tested on: Lactobacillus gasseri ATCC 33323; test: Mix-culturing with Bifidobacterium bifidum by HMO as sugar source, quantitative PCR; type: cell-based; settings: for Proliferation rate (number of bacteria after mix-culturing for 8 h/number of bacteria after single bacterial culturing): ATCC 33323^T mix-cultured with Bifidobacterium bifidum (NITE BP-02429), sugar source 2%, Table 8; for proliferation rate of Lactobacillus gasseri ATCC 33323^T (mix-cultured bacteria after 8 h/single bacterial culturing 8 h): Table 11
Method: (§1) A10% solution of glucose (manufactured by Nakarai Tesque Inc.), and 2′-FL ((≥95%) Funakoshi, available from sigma), and LNnT (manufactured by ELICITYL) as examples of HMOs was prepared with ion exchanged water, and was subjected to sterile filtration using Millex-GV (SLGV033RS).
(§2) Lactobacilli MRS Broth (BD) (0.05% L-Cysteine Hydrochloride for Bacteria of the genus Bifidobacterium) was added to strains of Table 1 below (bacteria belonging to Bifidobacterium bifidum) and Table 2 below. After a sterilization treatment, 3% of the bacterial solution was inoculated, and anaerobically cultured (pre-pre cultured) at 37° C. for 16 h.
(§3) The following day, 1% glucose was added to a modified BL agar medium (“Studies on Bifidobacteria” by Tomotari Mitsuoka, p. 306, Japan Bifidus Foundation, issued in 1994) noted in Table 3, for preparation. After a sterilization treatment, 3% of the pre-pre cultured bacterial solution was inoculated, and anaerobically pre-cultured (pre-cultured) at 37° C. for 12 h.
(§4) The pre-cultured bacterial solution was collected and washed once with a sterile physiological saline solution. Then, mass-up was performed to an equal volume with the modified BL agar medium (“Studies on Bifidobacteria” by Tomotari Mitsuoka, p. 306, Japan Bifidus Foundation, issued in 1994) noted in Table 3 to prepare a suspended bacterial solution.
(§5) The modified BL agar medium (“Studies on Bifidobacteria” by Tomotari Mitsuoka, p. 306, Japan Bifidus Foundation, issued in 1994) noted in Table 3 was prepared at a capacity of 60%, and was subjected to an autoclave sterilization treatment. Then, 40% of each sugar solution prepared in (1) was aseptically added so as to prepare a medium with a sugar concentration of 4%.
(§6) The medium prepared in the above (3) was dispensed at a capacity that is half the capacity for aseptic culturing in a 96-well plate, and each of the bacterial solutions of strains of bacteria belonging to Bifidobacterium bifidum in Table 1 and probiotics having a low ability to assimilate human milk oligosaccharides in Table 2, which was prepared in the above (2), was dispensed at a remaining […] capacity into the medium prepared in the above (3) such that the bacterial solution had 12%. Then, a final sugar concentration was set to 2%. The plate into which the bacterial solution was dispensed was anaerobically cultured at 37° C. for 8 h.
(§7) OD650 was measured from each well in the plates in the above (4) and the above (5) before (0 h) culturing and after (8 h) culturing, by MICROPLATE READER SH-9000 (manufactured by CORONA ELECTRIC). After turbidity measurement, microbial cells were collected, and DNA extraction was performed. After the DNA extraction, the number of proliferating bacteria of Bifidobacteria/lactobacilli was analyzed by using the bacterial species-specific primer noted in Table 4, by a quantitative PCR method (see “Structural analysis of intestinal flora”—analysis of bacterial flora in human feces using quantitative PCR—by Kouichi Watanabe, Enterobacteriological journal, 20:35-42, 2006).
(§8) It was decided to culture Bifidobacterium bifidum (NITE BP-02429) in which availability of 2′-FL or LNnT was found as described above, in combination with strains in Table 2, which cannot use 2′-FL or LNnT. Bifidobacterium bifidum (NITE BP-02429) and the strains in Table 2, which cannot use 2′-FL or LNnT, were mix-cultured by 2′-FL or LNnT as a sugar source, and after culturing for 8 h, the proliferation rate of the number of bacteria of each strain (proliferation rate=the number of bacteria after mix-culturing for 8 h/the number of bacteria after single bacterial culturing) was measured by a quantitative PCR method using each strain-specific oligonucleotide primer noted in Table 4, for the strain in Table 2.
Seven strains of Bifidobacterium bifidum in Table 1 and Lactobacillus gasseri ATCC 33323^T which cannot use 2′-FL were mix-cultured by 2′-FL as a sugar source. […]

[2] = tested on: Bifidobacterium peseudocatenulatum ATCC27919; test: Single bacterial culturing with HMO as sugar source, OD650; type: cell-based, Bifidobacterium pseudocatenulatum; settings: ATCC 27919^T, sugar source 2%, 8 h, Table 6
Method: as §1
Lactobacilli MRS Broth (BD) (0.05% L-Cysteine Hydrochloride for Bacteria of the genus Bifidobacterium) was added to strains of Table 1 below (bacteria belonging to Bifidobacterium bifidum) and Table 2 below. After a sterilization treatment, 3% of the bacterial solution was inoculated, and anaerobically cultured (pre-pre cultured) at 37° C. for 16 h. […]
OD650 was measured from each well in the plates in the above (4) and the above (5) before (0 h) culturing and after (8 h) culturing, by MICROPLATE READER SH-9000 (manufactured by CORONA ELECTRIC). […] After the DNA extraction, the number of proliferating bacteria of Bifidobacteria/lactobacilli was analyzed by using the bacterial species-specific primer noted in Table 4, by a quantitative PCR method (see “Structural analysis of intestinal flora”—analysis of bacterial flora in human feces using quantitative PCR—by Kouichi Watanabe, Enterobacteriological journal, 20:35-42, 2006).
Regarding strains in Table 2, each strain was cultured as a single bacterium by 2′-FL or LNnT (HMOs) as a sugar source, and OD650 was measured. […]

[3] = tested on: Bifidobacterium breve ATCC15700; test: as above; type: cell-based; settings: sugar source 2%, 8 h, Table 6
Method: as §1, §2, §3, §4, §5
(§9) The medium prepared in the above (3) was dispensed at a capacity that is half the capacity for culturing in a 96-well plate, and the bacterial solution prepared in the above (2) was dispensed at a remaining half capacity such that the bacterial solution had 6%. Then, a final sugar concentration was set to 2%. The plate into which the bacterial solution was dispensed was anaerobically cultured at 37° C. for 8 h.
as §7
(§10) Regarding strains in Table 2, each strain was cultured as a single bacterium by 2′-FL or LNnT (HMOs) as a sugar source, and OD650 was measured. The results for 2′-FL are noted in Table 6 below, and the results for LNnT are noted in Table 7 below.

[4] = tested on: Bifidobacterium animalis subsp lactis DSM10140; test: as above; type: cell-based; settings: DSM 101407, sugar source 2%, 8 h, Table 6
Method: as §1, §2, §3, §4, §5, §9, §7, §10

[5] = tested on: Lactobacillus plantarum ATCC14917; test: as above; type: cell-based; settings: ATCC 14917^T, sugar source 2%, 8 h, Table 6
Method: as §1, §2, §3, §4, §5, §9, §7, §10

[6] = tested on: Bifidobacterium longum subsp longum ATCC15707; test: as above; type: cell-based; settings: ATCC 15707^T, sugar source 2%, 8 h, Table 6
Method: as §1, §2, §3, §4, §5, §9, §7, §10

[7] = tested on: Bifidobacterium longum subsp infantis ATCC15697; test: as above; type: cell-based; settings: ATCC 156971, sugar source 2%, 8 h, Table 6
Method: as §1, §2, §3, §4, §5, §9, §7, §10

[8] = tested on: Lactobacillus rhamnosus ATCC7469; test: as above; type: cell-based; settings: ATCC 7469^T, sugar source 2%, 8 h, Table 6
Method: as §1, §2, §3, §4, §5, §9, §7, §10

[9] = tested on: Lactobacillus paracasei ATCC 25302; test: Mix-culturing with Bifidobacterium bifidum by HMO as sugar source, quantitative PCR; type: cell-based; settings: for Proliferation rate (number of bacteria after mix-culturing for 8 h/number of bacteria after single bacterial culturing): ATCC 25302^7 mix-cultured with Bifidobacterium bifidum (NITE BP-02429), sugar source 2%, Table 8; for Proliferation ratio of Lactobacillus paracasei ATCC 25302^T (mix-cultured bacteria after 8 h/single bacterial culturing 8 h): Table 12; for number of proliferating bacteria of Lactobacillus paracasei ATCC 25302^T in combination with seven strains of Bifidobacterium bifidum compared to single bacterium culture: summary of Table 12
Method: as §1, §2, §3, §4, §5, §6, §7, §8
Seven strains of Bifidobacterium bifidum in Table 1 and Lactobacillus paracasei ATCC 25302^T which cannot use 2′-FL or LNnT were mix-cultured by 2′-FL or LNnT as a sugar source. […]

[10] = tested on: Bifidobacterium longum subsp longum BB536; test: Single bacterial culturing with HMO as sugar source, OD650; type: cell-based; settings: sugar source 2%, 8 h, Table 7
Method: as §1, §2, §3, §4, §5, §9, §7, §10

[11] = mix-cultured with Bifidobacterium bifidum ATCC 29521^T
[12] = mix-cultured with Bifidobacterium bifidum NITE BP-1252
[13] = mix-cultured with Bifidobacterium bifidum NITE BP-02429
[14] = mix-cultured with Bifidobacterium bifidum NITE BP-02431
[15] = mix-cultured with Bifidobacterium bifidum NITE BP-02432
[16] = mix-cultured with Bifidobacterium bifidum NITE BP-02433
[17] = mix-cultured with Bifidobacterium bifidum NITE P-02648

Row | Compound | Proliferation rate (number of bacteria after mix-culturing for 8 h/number of bacteria after single bacterial culturing) [1] | Proliferation rate (number of bacteria after mix-culturing for 8 h/number of bacteria after single bacterial culturing) [9] | Proliferation ratio of Lactobacillus paracasei ATCC 25302^T (mix-cultured bacteria after 8 h/single bacterial culturing 8 h) [9, 11] | Proliferation ratio of Lactobacillus paracasei ATCC 25302^T (mix-cultured bacteria after 8 h/single bacterial culturing 8 h) [9, 12] | Proliferation ratio of Lactobacillus paracasei ATCC 25302^T (mix-cultured bacteria after 8 h/single bacterial culturing 8 h) [9, 13] | Proliferation ratio of Lactobacillus paracasei ATCC 25302^T (mix-cultured bacteria after 8 h/single bacterial culturing 8 h) [9, 14] | Proliferation ratio of Lactobacillus paracasei ATCC 25302^T (mix-cultured bacteria after 8 h/single bacterial culturing 8 h) [9, 15] | Proliferation ratio of Lactobacillus paracasei ATCC 25302^T (mix-cultured bacteria after 8 h/single bacterial culturing 8 h) [9, 16] | Proliferation ratio of Lactobacillus paracasei ATCC 25302^T (mix-cultured bacteria after 8 h/single bacterial culturing 8 h) [9, 17] | number of proliferating bacteria of Lactobacillus paracasei ATCC 25302^T in combination with seven strains of Bifidobacterium bifidum compared to single bacterium culture [9] | also measured
1 | 2′-fucosyllactose [2′-FL] | 3.70 | 6.92 | 2.28 | 1.98 | 4.21 | 3.25 | 2.01 | 3.23 | 4.23 | promoted | proliferation rate of Lactobacillus gasseri ATCC 33323^T (mix-cultured bacteria after 8 h/single bacterial culturing 8 h) [1, 11]: 1.45; proliferation rate of Lactobacillus gasseri ATCC 33323^T (mix-cultured bacteria after 8 h/single bacterial culturing 8 h) [1, 12]: 3.99; proliferation rate of Lactobacillus gasseri ATCC 33323^T (mix-cultured bacteria after 8 h/single bacterial culturing 8 h) [1, 13]: 2.33; proliferation rate of Lactobacillus gasseri ATCC 33323^T (mix-cultured bacteria after 8 h/single bacterial culturing 8 h) [1, 14]: 4.42; proliferation rate of Lactobacillus gasseri ATCC 33323^T (mix-cultured bacteria after 8 h/single bacterial culturing 8 h) [1, 15]: 3.99; proliferation rate of Lactobacillus gasseri ATCC 33323^T (mix-cultured bacteria after 8 h/single bacterial culturing 8 h) [1, 16]: 3.64; proliferation rate of Lactobacillus gasseri ATCC 33323^T (mix-cultured bacteria after 8 h/single bacterial culturing 8 h) [1, 17]: 2.88; number of proliferating bacteria of Lactobacillus gasseri ATCC33323T in combination with seven strains of Bifidobacterium bifidum compared to single bacterium culture ([1]; summary of Table 11): promoted; OD650 increase value [2]: 0.02; OD650 increase value [3]: 0.041; OD650 increase value [4]: 0.027; OD650 increase value [5]: 0.013; OD650 increase value [6]: 0.029; OD650 increase value [7]: 0.344; OD650 increase value [8]: 0.058
2 | CC(=O)N[C@H]1[C@H](O[C@H]2[C@@H](O)[C@@H](CO)O[C@@H](O[C@H]3[C@H](O)[C@@H](O)C(O)O[C@@H]3CO)[C@@H]2O)O[C@H](CO)[C@@H](O[C@@H]2O[C@H](CO)[C@H](O)[C@H](O)[C@H]2O)[C@@H]1O (mixture of isomers) [LNnT, lacto-N-neotetraose] | 1.53 | 4.23 | 4.26 | 9.18 | 8.04 | 10.10 | 8.76 | 8.85 | 14.78 | promoted | OD650 increase value [10]: 0.053
